Measurements as given in patent publication US9458138B1, “Pyrrole compounds as granzyme B inhibitors” (viDA Therapeutics Inc., priority 2014, dated 2016).

Columns and labels:
GzmB [1] = target: T1, GzmB (Homo sapiens, UniProt P10144); assay: Inhibition of Fibronectin Cleavage by GzmB (Example D8); assay type: biochemical; details: 20 nM granzyme B, Hilyte Fluor 488 labeled Fibronectin, 30° C.; for inhibition at 0.62 µM: 0.62 uM inhibitor, read-out: Percent Inhibition at Inhibitor Concentration 0.62 uM; for inhibition at 5.56 µM: 5.56 uM inhibitor, read-out: Percent Inhibition at Inhibitor Concentration 5.56 uM; for inhibition at 50 µM: 50 uM inhibitor, read-out: Percent Inhibition at Inhibitor Concentration 50 uM
Description: Black, 96 well high-binding assay plates (Griener Bio-one) were treated overnight at 4° C. with 40 uL of 8 ug/mL Hilyte Fluor 488 labeled Fibronectin (Cytoskeleton, Inc). After fibronectin coating, plates were washed 3 times in buffer (20 mM Tris-HCl, pH 7.4, 20 mM NaCl) then once with granzyme B assay buffer (50 mM HEPES, pH 7.5, 0.1% CHAPS). After washing, 50 uL of granzyme B assay buffer was added to each fibronectin-coated well. In a separate non-binding 96 well assay plate 5 uL of 20× inhibitor serial dilution stocks were added to 45 uL of 2.22× GzmB mix to establish inhibition (enzyme/inhibitor mixes were all prepared in granzyme B assay buffer and were incubated first at room temperature for 20 minutes, then at 30° C. for another 10 minutes). After incubation, 50 uL of this 2× enzyme/inhibitor mix was added to the corresponding coated well to initiate fibronectin cleavage (20 nM final granzyme B concentration, 8-point inhibitor dilution series starting at 50 uM). The assay was conducted at 30° C. in the TECAN plate reader (TECAN INFINITE® M1000 Pro), which was programmed to monitor the kinetic fluorescence polarization signal (filter set Ex/Em 470 nm/527 nm) with readings taken every minute, for 1 hour. Proteolytic activity was evaluated as the rate of fluorescence enhancement in the parallel emission over the linear range of the reaction. % Inhibition values were calculated from assay controls and the resulting date is shown in Table 7.

GzmB [2] = target: T1, GzmB; assay: Inhibition of Cell Detachment by GzmB Assay (Example D7); assay type: cell-based; details: 50 uM inhibitor; 100 nM GzmB; HDFa primary human fibroblasts; 7 hours; MTS absorbance 490 nm; read-out: Percent Inhibition of cell detachment at 50 uM
Description: HDFa primary human fibroblasts were plated at 10 k/well in 200 ul, approximately 20 hrs before treatment. The next day, controls and 100 nM GzmB (recombinant, human) plus or minus inhibitor treatments were prepared in serum-free media. GzmB and inhibitor were incubated for 20 minutes at RT before adding to cells. Before addition, media and serum was removed from the cells and the cells were washed with PBS (1×), using pipettes to prevent disturbing the cells. Treatment preparations (100 ul) were added to the wells and incubated for 7 hours in a tissue culture incubator. After 7 hours, media and treatments were removed and the cells were washed with PBS (1×) to removed detached cells, using pipettes only. Phase pictures were taken then the PBS was removed and replaced with 100 uL of serum-free media and 20 uL of MTS and the cells were allowed to incubate for 3 hours in a cell culture incubator. After 3 hours the absorbance was read at 490 nm and a percent inhibition value for the treatments with inhibitors was determined from the control wells.

T1 sequence (P10144 21-247): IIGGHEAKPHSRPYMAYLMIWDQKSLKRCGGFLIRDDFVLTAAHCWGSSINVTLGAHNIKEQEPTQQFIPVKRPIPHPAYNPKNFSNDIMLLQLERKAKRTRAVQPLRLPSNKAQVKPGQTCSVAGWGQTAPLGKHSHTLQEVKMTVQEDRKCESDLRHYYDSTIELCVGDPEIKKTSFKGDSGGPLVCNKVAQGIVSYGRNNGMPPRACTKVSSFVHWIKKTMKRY

| Structure (SMILES) | inhibition at 0.62 µM (GzmB [1]) [%] | inhibition at 5.56 µM (GzmB [1]) [%] | inhibition at 50 µM (GzmB [1]) [%] | inhibition at 50 µM (GzmB [2]) [%] |
| --- | --- | --- | --- | --- |
| O=C(O)CCC(=O)NC(c1ccc(C(=O)N2C[C@@H](O)C[C@H]2C(=O)NCc2nn[nH]n2)[nH]1)C1CCCC1 (stereo partly drawn) [Compound C8, 3-{[cyclopentyl({5-[(2S,4S)-4-hydroxy-2-[(2H-1,2,3,4-tetrazol-5-ylmethyl)carbamoyl]pyrrolidine-1-carbonyl]-1H-pyrrol-2-yl})methyl]carbamoyl}propanoic acid] | 63 | 83 | 94 | – |
| CC(C)C(NC(=O)CCC(=O)O)c1ccc(C(=O)N2CCC[C@H]2C(=O)NCc2nn[nH]n2)[nH]1 (mixture of isomers) [Compound C4, 3-{[2-methyl-1-{5-[(2S)-2-[(2H-1,2,3,4-tetrazol-5-ylmethyl)carbamoyl]pyrrolidine-1-carbonyl]-1H-pyrrol-2-yl}propyl]carbamoyl}propanoic acid] | 28 | 56 | 78 | – |
| CC(C)C(NC(=O)CCC(=O)O)c1ccc(C(=O)NCC(=O)NCc2nn[nH]n2)[nH]1 (racemic) [Compound C3, 3-{[2-methyl-1-[5-({[(2H-1,2,3,4-tetrazol-5-ylmethyl)carbamoyl]methyl}carbamoyl)-1H-pyrrol-2-yl]propyl]carbamoyl}propanoic acid] | – | – | – | 91 |
